According to patent publication US8907110B2, “Benzodioxepin-3-one compounds as dyes or as fluorescent emitters” (Merck Patent GmbH, priority 2011, dated 2014):

Assays:
Format in all cases: physicochemical
[1] = Absorption strength (absorption spectrum in ethanol); settings: for λmax: absorption maximum, dilute solution; for λmax / Half-value width / intense absorption up to / spectral range covered compared with curcumin and beta-carotene: in ethanol; for E1 % value: extinction at the absorption maximum extrapolated to a concentration of 1 g/100 ml, ethanol; for Half-value width: half-value width of the absorption band
Procedure: The measure used for the absorption strength is the so-called E1% value, and the half-value width of the absorption band in relation to the absorption maximum λmax indicated. The E1% value indicates the extinction at the absorption maximum extrapolated to a concentration of 1 g/100 ml. To this end, an absorption spectrum of the substance in ethanol is recorded in dilute solution. The values are compared with the reference spectra of curcumin and beta-carotene.

[2] = Thermal stability by thermographic method (TGA); settings: for Temperature at which 98% of the weight was still present: TGA, RT to 800° C., heating rate 10 K/min
Procedure: The thermal stability is determined with the aid of the thermographic method (instrument TGA Q5000 V3.10 Build 258, temperature range RT to 800° C., heating rate 10 K/min).

[3] = Fluorescence measurements in ethanol; settings: 0.00804-0.00820 mg/ml, cell thickness 1 cm
Procedure: The substance concentrations in ethanol indicated in the table are measured using an Aminco Bowman 2 fluorescence spectrometer (cell thickness 1 cm; excitation 220-600 nm; emission 220-800 nm; spectral gap width (excitation) 4 nm, (emission) 8 nm; recording speed 10 nm/min; step width (excitation) 5 nm, (emission) 4 nm.

[4] = Solubility determination in phenethyl benzoate (X-Tend 226)
Procedure: The solubility determination was carried out in phenethyl benzoate (X-Tend 226): […]

SMILES | λmax [1] [nm] | E1 % value [1] | Half-value width [1] | Temperature at which 98% of the weight was still present [2] [°C] | thermal stability (in words) [2] | intense absorption up to [1] | spectral range covered compared with curcumin and beta-carotene [1] | Emission [3] [nm] | Solubility in X-Tend 226 [4] [%] | Excitation [3] [nm]
CC1=C(/C=C/C(C)=C/C=C/C(C)=C/C=C/C=C(C)/C=C/C=C(C)/C=C/C2=C(C)CCCC2(C)C)C(C)(C)CCC1 [Beta-carotene, beta-carotene, reference compound] | 453 | 408 | approx. 88 nm | 84 | – | – | – | – | – | –
COc1cc(/C=C/C(=O)CC(=O)/C=C/c2ccc(O)c(OC)c2)ccc1O [Curcumin, curcumin, reference compound] | 426 | 1507 | approx. 78 nm | 223 | not thermally stable | – | – | – | – | –
CCCCN(CCCC)c1ccc(/C=C2\Oc3ccc(C)cc3O/C(=C\c3ccc(N(CCCC)CCCC)cc3)C2=O)cc1 [Example 8, 7-methyl-2,4-bis[1-(4-dibutylaminophenyl)meth-(Z)-ylidene]benzo[b]-1,4-dioxepin-3-one] | 484 | 571 | approx. 122 nm | 250 | excellent | up to 609 nm | significantly greater spectral range | 320 | 5.0 | 260

Second part, the molecule after the results:

λmax [1] [nm] | E1 % value [1] | Half-value width [1] | Temperature at which 98% of the weight was still present [2] [°C] | thermal stability (in words) [2] | intense absorption up to [1] | spectral range covered compared with curcumin and beta-carotene [1] | Emission [3] [nm] | Solubility in X-Tend 226 [4] [%] | Excitation [3] [nm] | SMILES
437 | 505 | approx. 102 nm | 281 | excellent | up to 539 nm | significantly greater spectral range | 412 | 2.2 | – | COc1cc(OC)c(OC)cc1/C=C1\Oc2ccc(C)cc2O/C(=C\c2cc(OC)c(OC)cc2OC)C1=O [Example 1, 7-methyl-2,4-bis[1-(2,4,5-trimethoxyphenyl)meth-(Z)-ylidene]benzo[b]-1,4-dioxepin-3-one]
– | – | – | – | – | up to 478 nm | – | – | – | – | COc1ccc(/C=C2\Oc3ccc(C)cc3O/C(=C\c3ccc(OC)cc3)C2=O)cc1 [Example 2, 2,4-bis[1-(4-methoxyphenyl)meth-(Z)-ylidene]-7-methylbenzo[b]-1,4-dioxepin-3-one]
369 | 515 | approx. 100 nm | 286 | excellent | – | significantly greater spectral range | 322 | 4.5 | 230 | COc1ccc(/C=C2\Oc3ccc(C)cc3O/C(=C\c3ccc(OC)c(OC)c3)C2=O)cc1OC [Example 3, 2,4-bis[1-(3,4-dimethoxyphenyl)-meth-(Z)-ylidene]-7-methylbenzo[b]-1,4-dioxepin-3-one]
